Experimental data taken from US12239650B2, “Compounds for treating and preventing net associated complications” (The Australian National University, priority 2019, dated 2025).

Legend:
histones = experiment: Lipid bilayer assay (artificial lipid bilayers exposed to histones); settings: for Average bilayer lifetime: histones alone 5.7±1.2, control 46±4; for Incidence of rapid bilayer rupture: within 0.3-0.5 min of histone addition, histones alone 28%
Protocol: Lipid bilayer assays. Artificial lipid bilayers, prepared as previously described (Rebbeck, R. T. et al. The beta(1a) subunit of the skeletal DHPR binds to skeletal RyR1 and activates the channel via its 35-residue C-terminal tail. Biophys J 100, 922-930 (2011).), separated symmetrical 150 mM or 250 mM KCl (pH ˜5.5) solutions. Histones (1 μM, 15.2 μg ml^−1) were added to bilayers alone or after 0.5-3 h incubation with 10 μM CBS (3.5 μg ml^−1) or 10 μM MTS (5.1 μg ml^−1) at ˜20° C. Current was recorded continuously after histone addition until the bilayers broke or the experiment was terminated.

[1] = Rat cardiac ischemia reperfusion injury model; format: in vivo; settings: rats, 30 mg kg^−1 into left ventricle 5 min prior to reperfusion, FIG. 7c
Description: Rat cardiac ischemia reperfusion injury model. The method used is based on a combination of previously published procedures (Takada, Y., Hashimoto, M., Kasahara, J., Aihara, K. & Fukunaga, K. Cytoprotective effect of sodium orthovanadate on ischemia/reperfusion-induced injury in the rat heart involves Akt activation and inhibition of fodrin breakdown and apoptosis. J Pharmacol Exp Ther 311, 1249-1255 (2004); and Hale, S. L., Dae, M. W. & Kloner, R. A. Hypothermia during reperfusion limits ‘no-reflow’ injury in a rabbit model of acute myocardial infarction. Cardiovasc Res 59, 715-722 (2003)). Male Wistar rats were anaesthetized with isofluorane, intubated via tracheostomy and ventilated with a tidal volume of 1 ml 150 g^−1 and a respiratory rate of 65 breaths min^−1. Supplemental oxygen was delivered at a FiO2 of ˜30%. […]
At the conclusion of reperfusion (30 min), Thioflavin S (1 ml 200 g^−1 of body weight) was slowly injected into the lumen of the left ventricle, to define the territory of microvascular obstruction (MVO) within the ischemic zone (IZ). The IZ territory was determined by the re-occlusion of the atraumatic snare and infusion of blue microspheres into the left ventricle (Unisperse Blue, BASF), distributed within solutions via ultrasonication using a CD-6800 (Unisonics) sonicator. […] Planimetry (Image J, Freeware) was used to quantify the areas of the IZ, MVO and necrosis.

[2] = tested on: histone-induced Ca2+ flux by HMEC-1; experiment: Calcium flux in endothelial cells (Indo-1 flow cytometry); format: cell-based, human; settings: compounds 100 μg ml^−1, histones 100 μg ml^−1, FIG. 5c
Protocol: Calcium flux studies in endothelial cells. HMEC-1 (2×10^7 ml^−1) in RPMI-1640 medium were incubated with Indo-1 AM (5 μM) (ThermoFisher) (Tellam, R. L. & Parish, C. R. The effect of sulfated polysaccharides on the free intracellular calcium ion concentration of lymphocytes. Biochim Biophys Acta 930, 55-64 (1987); and Weston, S. A., Tellam, R. L. & Parish, C. R. Dextran sulfate induces changes in the free intracellular calcium ion concentration of a subpopulation of immature thymocytes. Immunol Cell Biol 69, 369-376 (1991)) at 37° C. for 60 min. After 3 washes with RPMI-1640 medium supplemented with 5% FCS the cells were resuspended at 4×10^6 ml^−1 in ice-chilled HEPES-buffered saline (NaCl 8 g l^−1, KCl 0.4 g l^−1, CaCl2 0.2 g l^−1, MgCl2·6H2O 0.2 g l^−1, D-glucose 1.8 g l^−1, pH 7.4) supplemented with 10 mM HEPES. […] Intracellular Ca^2+ flux was monitored using flow cytometry. […] After the exclusion of cellular debris and clumped cells (on the basis of FSC/SSC light scattering) the basal Ca^2+ level was monitored for 2 min before histone addition in the presence/absence of novel compounds. Ca^2+ levels were measured at 1, 3 and 9 min post-histone addition with a constant flow rate (˜300 events/sec). Ca^2+ flux was determined as an increase in the ratio of geometric mean fluorescence intensity (GMFI) of Ca^2+-bound over Ca^2+-unbound Indo-1.

[3] = tested on: histone-induced platelet aggregation; experiment: Histone-induced aggregation of isolated platelets; format: cell-based, human; settings: FIG. 4b; for Inhibition of histone-induced platelet aggregation: histones 150 μg/mL, isolated platelets
Protocol: In vitro platelet aggregation and degranulation assays. For aggregation studies platelets were isolated from human whole blood collected into Na-citrate vacutainers through 2-step centrifugation at room temperature (200×g for 20 min then the platelet-rich plasma 800×g for 15 min), the platelet pellet resuspended in Hank's balanced salt solution containing calcium and magnesium and histones added and incubated in the presence/absence of compounds at the concentrations of each as indicated. Samples were assessed for degree of platelet aggregation after 15 min exposure to histones by flow cytometry using the characteristic log FSC versus log SSC identification of platelets, with increases in the geometric mean of log FSC indicative of platelet aggregation.

[4] = histones 1 μM with 10 μM compound

SMILES | Average bilayer lifetime (histones; [4]) [min] | Incidence of rapid bilayer rupture (histones) [%] | Reduction of area of microvascular obstruction and myocardial necrosis in the ischemic zone [1] | Effect on histone-induced Ca2+ response [2] | Inhibition of histone-induced platelet aggregation [3] | Bilayer lifetime compared with control lifetimes (histones; [4]) | Relative activity in inhibiting histone-induced platelet aggregation [3]
O=S(=O)(O)OC[C@H]1O[C@@H](O[C@H]2[C@H](OS(=O)(=O)O)[C@@H](OS(=O)(=O)O)C(OS(=O)(=O)O)O[C@@H]2COS(=O)(=O)O)[C@H](OS(=O)(=O)O)[C@@H](OS(=O)(=O)O)[C@@H]1OS(=O)(=O)O (stereo partly drawn) [CBS, cellobiose per-O-sulfate] | 18 ± 4 | 5.8 | 50% | substantially inhibited | completely inhibited | – | –
O=S(=O)(O)OC[C@H]1O[C@H](O[C@H]2[C@H](OS(=O)(=O)O)[C@@H](OS(=O)(=O)O)C(OS(=O)(=O)O)O[C@@H]2COS(=O)(=O)O)[C@H](OS(=O)(=O)O)[C@@H](OS(=O)(=O)O)[C@@H]1O[C@H]1O[C@H](COS(=O)(=O)O)[C@@H](OS(=O)(=O)O)[C@H](OS(=O)(=O)O)[C@H]1OS(=O)(=O)O (stereo partly drawn) [MTS, maltotriose per-O-sulfate] | 36 ± 5 | 2.5 | totally ineffectual | totally ablated | completely inhibited | not significantly different from the control lifetimes | most active
